Measurements as given in US20200216493A1, “ANTIMICROBIAL PEPTIDES” (FERRING B.V., priority 2016, published 2020).
In brackets after ≈: the same amount, converted by molar mass. Where two headings read alike, the source gives them in different places. Bridge positions count the residues as written; N and C are the ends. Square brackets hold non-standard residues; d marks the D form. Peptide text beside a SMILES is read from it. 1Nal = N[C@@H](Cc1cccc2ccccc12)C(=O)O; d(aIle) = CC[C@H](C)[C@@H](N)C(=O)O; dNMeF = CN[C@H](Cc1ccccc1)C(=O)O; hArg = N=C(N)NCCCC[C@H](N)C(=O)O

What was measured:
[1] = tested on: E.coli; assay type: cell-based, Escherichia coli; conditions: for MIC ratio Coli/Staph: ratio of E. coli MIC to S. aureus MIC
Protocol: (§1) This assay was used to determine the minimum concentration of a test compound (i.e., an antimicrobial peptide described herein) able to inhibit the growth of a bacterial strain of interest. This is a standard method for measuring and comparing the potency of peptide-based antibacterial agents (Steinberg et al., Antimicrobial Agents and Chemotherapy 1997, 41 (8) 1738 - 1742 and Wiegand et al., Nature Protocols 2008, 3, 163-175).
(§2) The MIC is reported in units of μg/mL.
(§3) Bacterial cultures were grown by inoculating Mueller-Hinton Broth (MHB) with 3 or 4 representative colony (typical size, color, and shape) from a bacterial strain grown on a LB agar plate. Inoculated liquid cultures were grown at 37° C. with moderate shaking (200-250 rpm) until bacteria produced a visibly turbid suspension. Bacterial inoculum was approximated by measuring the optical density at 600 nm (0D600) of the bacterial culture against a sterile MHB blank. Typically, OD600=0.10 corresponds to ˜1×10^8 cfu/mL for S.aureus and OD600 =0.15 corresponds to ˜1×10^8 cfu/mL for E.coli.
(§4) Test compounds were prepared as stock solutions in vehicle at a concentration 10 times the highest concentration to be tested for antibacterial activity (usually 320 μg/mL stock solutions). 2x serial dilutions in vehicle (at 10× the final test concentrations) of the test compounds were prepared from the test compound stock solutions in a non-binding 96 well plate.
(§5) In a sterile clear flat bottom 96 well plate, 15 μL of each test compound dilution was added to 135 μL of ˜5×10^5 cfu/mL bacterial culture. Each concentration was tested in duplicate. Each experiment contained positive control wells for bacterial growth (i.e., no test compound added to bacteria) and sterility controls wells (i.e., sterile MHB and no test compounds added). 96 well plates containing bacterial cultures and test compounds were incubated at 37° C. for 16-20 hours with shaking at 200 rpm.
(§6) After incubation, the MIC of each test compound was determined by measuring the OD600 of each well using a plate reader. Wells with OD600 >0.08 were considered to have bacterial growth and wells with OD600<0.08 were considered to have no bacterial growth. The lowest concentration of test agent able to inhibit bacterial growth (0D600<0.08 after 16-20 hours) was defined as the MIC.

[2] = tested on: S.aureus; assay type: cell-based, Staphylococcus aureus
Protocol: as §1, §2, §3, §4, §5, §6

[3] = tested on: C. difficile
[4] = tested on: B. fragilis
[5] = broth microdilution, Example 17a

Row | SMILES | MIC E. coli [1] | MIC ratio Coli/Staph [1] | MIC S. aureus [2] | MIC C. difficile [3] | MIC B. fragilis [4] | MIC C. difficile ([3]; anaerobic broth microdilution, read after 44-48 hours, Example 17b) | MIC E. coli [1, 5] | MIC S. aureus [2, 5]
1 | CC[C@H](C)[C@H](NC(=O)[C@@H](Cc1ccccc1)NC)C(=O)N[C@@H](CO)C(=O)N[C@H](CCC(N)=O)C(=O)N[C@@H](C(=O)N[C@H](C(=O)N[C@@H](CO)C(=O)N[C@H]1C(=O)N[C@@H](C)C(=O)N[C@@H](CCCCNC(=N)NC)C(=O)N[C@@H]([C@@H](C)CC)C(=O)O[C@H]1C)[C@@H](C)CC)[C@@H](C)CC [Compound 6, H-D-MePhe-Ile-Ser-D-Gln-D-aIle-Ile-Ser-c(D-Thr-Ala-Har(Me)-Ile)] | 8 µg/mL (≈ 6.29 µM) | 62 | 0.13 µg/mL (≈ 0.102 µM) | 0.03 µg/mL (≈ 0.0236 µM) | >32 µg/mL |  |  | 
2 | CC[C@@H](C)[C@@H](NC(=O)[C@@H](CCC(N)=O)NC(=O)[C@H](CO)NC(=O)[C@@H](NC(=O)[C@@H](Cc1ccccc1)NC)[C@@H](C)CC)C(=O)N[C@H](C(=O)N[C@@H](CO)C(=O)N[C@H]1C(=O)N[C@@H](C)C(=O)N[C@@H](CCCCN)C(=O)N[C@@H]([C@@H](C)CC)C(=O)O[C@H]1C)[C@@H](C)CC [Compound 12, H-D-MePhe-Ile-Ser-D-Gln-D-Ile-Ile-Ser-c(D-Thr-Ala-Lys-Ile)] | 32 µg/mL (≈ 26.3 µM) | 128 | 0.25 µg/mL (≈ 0.206 µM) | 0.25 µg/mL (≈ 0.206 µM) | >32 µg/mL |  |  | 
3 | CC[C@H](C)[C@H](NC(=O)[C@H](NC(=O)[C@@H](CCC(N)=O)NC(=O)[C@H](CO)NC(=O)[C@H](CC(C)C)NC(=O)[C@@H](Cc1ccccc1)NC)[C@@H](C)CC)C(=O)N[C@@H](CO)C(=O)N[C@H]1C(=O)N[C@@H](C)C(=O)N[C@@H](CCCCN)C(=O)N[C@@H]([C@@H](C)CC)C(=O)O[C@H]1C [Compound 10, H-D-MePhe-Leu-Ser-D-Gln-D-aIle-Ile-Ser-c(D-Thr-Ala-Lys-Ile)] (H-[dNMeF]LS[dQ][d(aIle)]IS[dT]AKI; ester 8-C) | 16 µg/mL (≈ 13.2 µM) | 84 | 0.19 µg/mL (≈ 0.156 µM) |  |  |  |  | 
4 | CC[C@H](C)[C@H](NC(=O)[C@@H](Cc1ccccc1)NC)C(=O)N[C@@H](CO)C(=O)N[C@H](CCC(N)=O)C(=O)N[C@@H](C(=O)N[C@H](C(=O)N[C@@H](CO)C(=O)N[C@H]1C(=O)N[C@@H](C)C(=O)N[C@@H](CCCNC(=N)NC)C(=O)N[C@@H]([C@@H](C)CC)C(=O)O[C@H]1C)[C@@H](C)CC)[C@@H](C)CC [Compound 11, H-D-MePhe-Ile-Ser-D-Gln-D-aIle-Ile-Ser-c(D-Thr-Ala-Arg(Me)-Ile)] | 16 µg/mL (≈ 12.7 µM) | 64 | 0.25 µg/mL (≈ 0.199 µM) | 0.12 µg/mL (≈ 0.0953 µM) | >32 µg/mL |  |  | 
5 | CC[C@H](C)[C@H](NC(=O)[C@@H](Cc1ccccc1)NC)C(=O)N[C@@H](Cc1c[nH]c2ccccc12)C(=O)N[C@H](CCC(N)=O)C(=O)N[C@@H](C(=O)N[C@H](C(=O)N[C@@H](CO)C(=O)N[C@H]1C(=O)N[C@@H](C)C(=O)N[C@@H](CCCCN)C(=O)N[C@@H]([C@@H](C)CC)C(=O)O[C@H]1C)[C@@H](C)CC)[C@@H](C)CC [Compound 7, H-D-MePhe-Ile-Trp-D-Gln-D-aIle-Ile-Ser-c(D-Thr-Ala-Lys-Ile)] (H-[dNMeF]IW[dQ][d(aIle)]IS[dT]AKI; ester 8-C) | 32 µg/mL (≈ 24.3 µM) | 246 | 0.13 µg/mL (≈ 0.0988 µM) |  | >32 µg/mL | ≤0.03 to 0.06 µg/mL |  | 
6 | CC[C@H](C)[C@H](NC(=O)[C@@H](Cc1ccccc1)NC)C(=O)N[C@@H](CCCCN)C(=O)N[C@H](CCC(N)=O)C(=O)N[C@@H](C(=O)N[C@H](C(=O)N[C@@H](CO)C(=O)N[C@H]1C(=O)N[C@@H](C)C(=O)N[C@@H](CCCCNC(=N)N)C(=O)N[C@@H]([C@@H](C)CC)C(=O)O[C@H]1C)[C@@H](C)CC)[C@@H](C)CC [Compound 1, H-D-MePhe-Ile-Lys-D-Gln-D-aIle-Ile-Ser-c(D-Thr-Ala-Har-Ile)] (H-[dNMeF]IK[dQ][d(aIle)]IS[dT]A[hArg]I; ester 8-C) |  | 67 |  | <0.03 µg/mL | >32 µg/mL |  | 4 µg/mL (≈ 3.08 µM) | 0.06 µg/mL (≈ 0.0462 µM)
7 | CC[C@H](C)[C@H](NC(=O)[C@H](N)Cc1ccc(Cl)cc1)C(=O)N[C@@H](CO)C(=O)N[C@H](CCC(N)=O)C(=O)N[C@@H](C(=O)N[C@H](C(=O)N[C@@H](CO)C(=O)N[C@H]1C(=O)N[C@@H](C)C(=O)N[C@@H](CCCCN)C(=O)N[C@@H]([C@@H](C)CC)C(=O)O[C@H]1C)[C@@H](C)CC)[C@@H](C)CC [Compound 4, H-D-Phe(4-Cl)-Ile-Ser-D-Gln-D-aIle-Ile-Ser-c(D-Thr-Ala-Lys-Ile)] | 8 µg/mL (≈ 6.47 µM) | 62 | 0.13 µg/mL (≈ 0.105 µM) | 0.06 to 0.12 µg/mL | >32 µg/mL |  |  | 
8 | CC[C@H](C)[C@H](NC(=O)[C@@H](Cc1ccccc1)NC)C(=O)N[C@@H](CO)C(=O)N[C@H](CCC(N)=O)C(=O)N[C@@H](C(=O)N[C@H](C(=O)N[C@@H](CO)C(=O)N[C@H]1C(=O)N[C@@H](C)C(=O)N[C@@H](CCCNC(=N)N)C(=O)N[C@@H]([C@@H](C)CC)C(=O)O[C@H]1C)[C@@H](C)CC)[C@@H](C)CC [Arg10-teixobactin] | >16 µg/mL | >64 | 0.25 to 0.5 µg/mL | 0.12 µg/mL (≈ 0.0964 µM) | >32 µg/mL |  |  | 
9 | CC[C@H](C)[C@H](NC(=O)[C@@H](Cc1ccccc1)NC)C(=O)N[C@@H](CO)C(=O)N[C@H](CCC(N)=O)C(=O)N[C@@H](C(=O)N[C@H](C(=O)N[C@@H](CO)C(=O)N[C@H]1C(=O)N[C@@H](C)C(=O)N[C@@H](CCCCN)C(=O)N[C@@H]([C@@H](C)CC)C(=O)O[C@H]1C)[C@@H](C)CC)[C@@H](C)CC [Lys10-teixobactin] | 16 µg/mL (≈ 13.2 µM) | 64 | 0.25 µg/mL (≈ 0.206 µM) | 0.12 µg/mL (≈ 0.0986 µM) | >32 µg/mL |  |  | 
10 | CC[C@H](C)[C@H](NC(=O)[C@@H](Cc1ccccc1)NC)C(=O)N[C@@H](CO)C(=O)N[C@H](Cc1c[nH]c2ccccc12)C(=O)N[C@@H](C(=O)N[C@H](C(=O)N[C@@H](CO)C(=O)N[C@H]1C(=O)N[C@@H](C)C(=O)N[C@@H](CCCCN)C(=O)N[C@@H]([C@@H](C)CC)C(=O)O[C@H]1C)[C@@H](C)CC)[C@@H](C)CC [Compound 13, H-D-MePhe-Ile-Ser-D-Trp-D-aIle-Ile-Ser-c(D-Thr-Ala-Lys-Ile)] (H-[dNMeF]IS[dW][d(aIle)]IS[dT]AKI; ester 8-C) | 16 µg/mL (≈ 12.6 µM) | 64 | 0.25 µg/mL (≈ 0.196 µM) |  |  |  |  | 
11 | CC[C@H](C)[C@H](NC(=O)[C@@H](Cc1ccccc1)NC)C(=O)N[C@@H](CCCCN)C(=O)N[C@H](CCC(N)=O)C(=O)N[C@@H](C(=O)N[C@H](C(=O)N[C@@H](CO)C(=O)N[C@H]1C(=O)N[C@@H](C)C(=O)N[C@@H](CCCCN)C(=O)N[C@@H]([C@@H](C)CC)C(=O)O[C@H]1C)[C@@H](C)CC)[C@@H](C)CC [Compound 8, H-D-MePhe-Ile-Lys-D-Gln-D-aIle-Ile-Ser-c(D-Thr-Ala-Lys-Ile)] (H-[dNMeF]IK[dQ][d(aIle)]IS[dT]AKI; ester 8-C) |  | 31 |  | 0.06 µg/mL (≈ 0.0477 µM) | >32 µg/mL |  | 4 µg/mL (≈ 3.18 µM) | 0.13 µg/mL (≈ 0.103 µM)
12 | CC[C@H](C)[C@H](NC(=O)[C@@H](Cc1ccccc1)NC)C(=O)N[C@@H](Cc1cccc2ccccc12)C(=O)N[C@H](CCC(N)=O)C(=O)N[C@@H](C(=O)N[C@H](C(=O)N[C@@H](CO)C(=O)N[C@H]1C(=O)N[C@@H](C)C(=O)N[C@@H](CCCCN)C(=O)N[C@@H]([C@@H](C)CC)C(=O)O[C@H]1C)[C@@H](C)CC)[C@@H](C)CC [Compound 3, H-D-MePhe-Ile-1Nal-D-Gln-D-aIle-Ile-Ser-c(D-Thr-Ala-Lys-Ile)] (H-[dNMeF]I[1Nal][dQ][d(aIle)]IS[dT]AKI; ester 8-C) | >32 µg/mL | >356 | 0.09 µg/mL (≈ 0.0678 µM) |  |  |  |  | 
